Measured values reported in patent US6111103A, “Diresorcinyl-alkoxy- and -aryloxy-s-triazines” (Ciba Specialty Chemicals Corporation, priority 1998, dated 2000).

What was measured:
[1] = UV/Vis absorption (λmax, ε); type: physicochemical; set-up: ε at λmax: unit not given beside the values
[2] = Solubility in ethanol (25° C.); type: physicochemical

| SMILES | UV/Vis λmax ([1]; EtOH) | ε at λmax ([1]; EtOH) | UV/Vis λmax ([1]; Dioxan) | ε at λmax ([1]; Dioxan) | Solubility in ethanol [2] |
| --- | --- | --- | --- | --- | --- |
| CCCCCCCCC(CCCCCC)COc1nc(-c2ccc(O)cc2O)nc(-c2ccc(O)cc2O)n1 (stereo not drawn) [compound 104] | 351 nm | 36148 | – | – | – |
| CCCCCCCCCCCCC(CCCCCCCCCC)COc1nc(-c2ccc(OC)cc2O)nc(-c2ccc(OC)cc2O)n1 (stereo not drawn) [compound 110] | – | – | 347 nm | 36219 | – |
| CCCCCCCCCCCCCCCCCCOc1nc(-c2ccc(O)cc2O)nc(-c2ccc(O)cc2O)n1 [compound 105] | 350 nm | 31662 | – | – | – |
| CCCCCCCCCCCCC(CCCCCCCCCC)COc1nc(-c2ccc(O)cc2O)nc(-c2ccc(O)cc2O)n1 (stereo not drawn) [compound 101] | 350 nm | 34482 | – | – | – |

Results, then the molecule that gave them:

| UV/Vis λmax ([1]; EtOH) | ε at λmax ([1]; EtOH) | UV/Vis λmax ([1]; Dioxan) | ε at λmax ([1]; Dioxan) | Solubility in ethanol [2] | SMILES |
| --- | --- | --- | --- | --- | --- |
| 350 nm | 39177 | – | – | 1.50% | CCCCC(CC)COc1nc(-c2ccc(O)cc2O)nc(-c2ccc(O)cc2O)n1 (stereo not drawn) [compound 102] |
| 350 nm | 36949 | – | – | 0.08% | COc1nc(-c2ccc(O)cc2O)nc(-c2ccc(O)cc2O)n1 [compound 107] |
| 348 nm | 34123 | – | – | – | CCCCCCCCC(CCCCCC)COc1nc(-c2ccc(OC)cc2O)nc(-c2ccc(OC)cc2O)n1 (stereo not drawn) [compound 111] |
| – | – | 347 nm | 37680 | – | COc1ccc(-c2nc(OC)nc(-c3ccc(OC)cc3O)n2)c(O)c1 [compound 112] |
| 350 nm | 36761 | – | – | 0.17% | CCOc1nc(-c2ccc(O)cc2O)nc(-c2ccc(O)cc2O)n1 [compound 108] |
